Source: patent publication US20250188149A1, “ENHANCING ESTROGEN RECEPTOR ALPHA IN OSTEOARTHRITIS” (University of Pittsburgh - Of the Commonwealth System of …, priority 2022, published 2025)

What was measured:
[1] = system: healthy human chondrocytes; experiment: DOX-induced DNA damage and senescence in healthy human chondrocytes; conditions: 100 nM DOX, 3 days, vs vehicle
[2] = patients with knee OA, intra-articular injection, phase II clinical trial, vs placebo; cited from earlier work

COc1cccc2c1C(=O)c1c(O)c3c(c(O)c1C2=O)C[C@@](O)(C(=O)CO)C[C@@H]3O[C@H]1C[C@H](N)[C@H](O)[C@H](C)O1 [DOX, doxorubicin]
DNA damage (p21, γH2AX levels, comet assay) [1]: significant DNA damage
IL-6 and IL-8 expression (real-time qPCR) [1]: upregulation
NF-κB pathway (NFκB gene, p-p65) [1]: activated
SA-β-Gal staining (senescent phenotype) [1]: increased
p16INK4A and p21 levels [1]: upregulation
ERα level ([1]; western blot and IF): significantly reduced

CC1(C)CCC(c2ccc(Cl)cc2)=C(CN2CCN(c3ccc(C(=O)NS(=O)(=O)c4ccc(N[C@H](CCN5CCOCC5)CSc5ccccc5)c(S(=O)(=O)C(F)(F)F)c4)cc3)CC2)C1 [ABT-263]
reduction of joint pain and stiffness [2]: failed to outperform a placebo
